In ChEMBL document CHEMBL1156840, “Design, synthesis and biological evaluation of new 2,3-diarylquinoline derivatives as selective cyclooxygenase-2 inhibitors” (Bioorg Med Chem, 2010):
pIC50: −log10 of the molar value.

molecular target: T1, Prostaglandin G/H synthase 1 (Ovis aries, UniProt P05979)
T1 sequence (P05979 whole entry): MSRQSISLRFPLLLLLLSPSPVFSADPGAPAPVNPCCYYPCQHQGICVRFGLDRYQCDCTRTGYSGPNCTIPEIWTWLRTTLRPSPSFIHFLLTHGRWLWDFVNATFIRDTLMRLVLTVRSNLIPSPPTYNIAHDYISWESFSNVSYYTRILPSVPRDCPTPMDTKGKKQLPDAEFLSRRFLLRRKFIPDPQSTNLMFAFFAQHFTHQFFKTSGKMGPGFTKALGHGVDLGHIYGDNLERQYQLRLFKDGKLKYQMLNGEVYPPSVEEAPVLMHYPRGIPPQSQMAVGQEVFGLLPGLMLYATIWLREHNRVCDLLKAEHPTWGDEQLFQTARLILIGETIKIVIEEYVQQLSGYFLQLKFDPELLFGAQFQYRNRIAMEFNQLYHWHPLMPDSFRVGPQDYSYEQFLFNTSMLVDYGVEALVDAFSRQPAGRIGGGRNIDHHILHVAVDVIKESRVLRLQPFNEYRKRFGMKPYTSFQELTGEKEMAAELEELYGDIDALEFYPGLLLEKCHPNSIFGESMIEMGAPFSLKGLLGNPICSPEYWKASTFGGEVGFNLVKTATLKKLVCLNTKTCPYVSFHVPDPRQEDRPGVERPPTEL
Description: Inhibition of ovine COX1 by enzyme chemiluminescent enzyme assay

Row | SMILES | pIC50
1 | CS(=O)(=O)c1ccc(-c2nc3ccccc3c(C(=O)O)c2-c2ccccc2)cc1 | 4.32
2 | CS(=O)(=O)c1ccc(-c2nc3ccccc3c(-c3ccccc3)c2-c2ccccc2)cc1 | 4.99
3 | CS(=O)(=O)c1ccc(-c2nc3ccccc3cc2-c2ccccc2)cc1 | 4.47

Further molecules by rising pIC50, results first:

Row | pIC50 | SMILES
4 | 4.84 | CS(=O)(=O)c1ccc(-c2nc3ccccc3c(N)c2-c2ccccc2)cc1
5 | 4.88 | Cc1c(-c2ccccc2)c(-c2ccc(S(C)(=O)=O)cc2)nc2ccccc12
